Measured values: ChEMBL document CHEMBL4007478, “Diarylpentadienone derivatives (curcumin analogues): Synthesis and anti-inflammatory activity” (Bioorg Med Chem Lett, 2017)
In brackets after ≈: the same amount, converted by molar mass. Activity calls are given as the source filed them. The rule behind the calls is not given here.

Tests used:
[1] = molecular target: Transcription factor p65 (Mus musculus) (UniProt Q04207); test: Inhibition of LPS-induced NF-kB p65 phosphorylation in mouse RAW264.7 cells at 0.3 ug/ml preincubated for 12 hrs followed by LPS stimulation for 3 hrs by Western blot method; assay type: cell-based
[2] = molecular target: Transcription factor p65 (Mus musculus) (UniProt Q04207); test: Inhibition of NF-kB p65 in mouse RAW264.7 cells assessed as reduction in LPS-induced iNOS expression at 0.3 ug/ml preincubated for 12 hrs followed by LPS stimulation for 3 hrs by Western blot method; assay type: cell-based
[3] = molecular target: Transcription factor p65 (Mus musculus) (UniProt Q04207); test: Inhibition of NF-kB p65 in mouse RAW264.7 cells assessed as reduction in LPS-induced COX2 expression at 0.3 ug/ml preincubated for 12 hrs followed by LPS stimulation for 3 hrs by Western blot method; assay type: cell-based
[4] = molecular target: Transcription factor p65 (Mus musculus) (UniProt Q04207); test: Inhibition of LPS-induced NF-kB p65 activation in mouse RAW264.7 cells at 0.3 ug/ml preincubated for 12 hrs followed by LPS stimulation for 3 hrs by DAPI staining based inverted fluorescence microscopic method; assay type: cell-based
[5] = Aqueous solubility of the compound in water at 1 mg exposed to ultrasound for 1 hr measured after 30 mins by UV-spectrophotometric method; assay type: physicochemical; conditions: for solubility at 1 h: water
[6] = system: RAW264.7; test: Anti-inflammatory activity in mouse RAW264.7 cells assessed as inhibition of LPS-induced IL-6 production at 20 uM by ELISA; assay type: functional
[7] = system: RAW264.7; test: Anti-inflammatory activity in mouse RAW264.7 cells assessed as inhibition of LPS-induced TNFalpha production at 20 uM by ELISA; assay type: functional

Chain of Transcription factor p65 (Mus musculus) (Q04207 whole entry): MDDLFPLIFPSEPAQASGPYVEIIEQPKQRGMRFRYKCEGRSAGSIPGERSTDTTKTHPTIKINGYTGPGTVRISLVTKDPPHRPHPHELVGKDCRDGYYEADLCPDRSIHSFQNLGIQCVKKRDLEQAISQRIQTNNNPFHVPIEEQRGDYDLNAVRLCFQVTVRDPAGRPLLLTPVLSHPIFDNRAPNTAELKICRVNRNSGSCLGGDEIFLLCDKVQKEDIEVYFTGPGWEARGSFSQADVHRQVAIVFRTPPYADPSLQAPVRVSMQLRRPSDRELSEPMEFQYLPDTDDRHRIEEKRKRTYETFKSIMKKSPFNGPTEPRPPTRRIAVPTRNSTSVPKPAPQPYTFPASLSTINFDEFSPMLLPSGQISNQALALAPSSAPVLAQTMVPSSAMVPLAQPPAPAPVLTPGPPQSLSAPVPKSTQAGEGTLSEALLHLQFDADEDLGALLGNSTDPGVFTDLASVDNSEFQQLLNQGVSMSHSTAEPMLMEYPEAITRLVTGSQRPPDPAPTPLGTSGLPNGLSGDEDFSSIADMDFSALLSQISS

Structure (SMILES): Cc1ccc(S(=O)(=O)/C=C/C#N)cc1
- inhibition [1]: Active
- inhibition [2]: Active
- inhibition [3]: Active
- inhibition [4]: Active

Structure (SMILES): O=C(/C=C/C=C/c1ccccc1)c1ccc(F)cc1F
- solubility at 1 h [5]: 7.86 µg/mL (≈ 29.1 µM)

Structure (SMILES): O=C(/C=C/C=C/c1ccccc1)c1ccc([N+](=O)[O-])cc1
- solubility at 1 h [5]: 13.2 µg/mL (≈ 47.3 µM)

Structure (SMILES): O=C(/C=C/C=C/c1ccccc1)c1ccccc1Cl
- solubility at 1 h [5]: 8.2 µg/mL (≈ 30.5 µM)

Structure (SMILES): COc1ccccc1/C=C/C=C/C(=O)c1ccc([N+](=O)[O-])cc1
- solubility at 1 h [5]: 13.9 µg/mL (≈ 45.1 µM)

Structure (SMILES): COc1ccccc1/C=C/C=C/C(=O)c1ccccc1Cl
- solubility at 1 h [5]: 9.45 µg/mL (≈ 31.6 µM)

Structure (SMILES): COc1cc(C(=O)/C=C/C=C/c2ccccc2)cc(OC)c1OC
- solubility at 1 h [5]: 20.3 µg/mL (≈ 62.7 µM)
- inhibition [6]: Active
- inhibition [7]: Active

Structure (SMILES): CN(C)c1ccc(/C=C/C=C/C(=O)c2ccccc2Cl)cc1
- solubility at 1 h [5]: 7.55 µg/mL (≈ 24.2 µM)

Structure (SMILES): COc1cc(/C=C/C(=O)CC(=O)/C=C/c2ccc(O)c(OC)c2)ccc1O [CURCUMIN]
- solubility ([5]; 1 h): 12.87 µg/mL (≈ 34.9 µM)
- inhibition [6]: Active
- inhibition [7]: Active

Structure (SMILES): COc1ccccc1/C=C/C=C/C(=O)c1cc(OC)c(OC)c(OC)c1
- solubility at 1 h [5]: 25.9 µg/mL (≈ 73.1 µM)
- inhibition [6]: Active
- inhibition [7]: Active

Structure (SMILES): CC(C)c1ccc(C(=O)/C=C/C=C/c2ccccc2)cc1
- solubility at 1 h [5]: 6.78 µg/mL (≈ 24.5 µM)
